Reference: patent US10450340B2, “3′-deamino-3′-(2″-pyrroline-1″-yl)-5-imino-13-deoxyanthracyclines and methods of preparation” (priority 2017, dated 2019)
Where two headings read alike, the source gives them in different places. Marks after values point to notes of the source that are not given here.

Assays:
SW-872 liposarcoma cells = assay: Antiproliferative activity, resazurin assay, SW-872; format: cell-based; settings: Homo sapiens, read-out: Drug IC50 Values
Procedure: (§1) The growth inhibitory potency of 2-pyrrolino-5-imino-13-deoxydoxorubicin IV, 5-imino-13-deoxydoxorubicin III, and doxorubicin I against several cancer cell lines was evaluated using the resazurin fluorescence assay. The growth inhibitory potency was measured as the inhibitory concentration of a compound required to inhibit cell growth by 50% (IC50). The cancer cells were seeded into 96-well plates (0.5-1×10^4 cells/well) with appropriate media, incubated with drug for 48 hours, and then treated with resazurin (final concentration, 0.01%), a non-fluorescent blue dye, for 24 hours. The fluorescence (Ex560 nm/Em590 nm) was recorded using a BioTek SynergyHT multiwell plate fluorimeter. Healthy cells metabolize resazurin to resorufin, a fluorescent pink dye. Thus, fluorescence is a proxy for cell viability and used to determine the effect of cytotoxic agents on cell cultures. […] The activity of 2-pyrrolino-5-imino-13-deoxydoxorubicin IV was also greater than that of doxorubicin I, with IC50 values that were, on average, lower than those of doxorubicin I.

[1] = tested on: RD rhabdomyosarcoma cells; assay: Antiproliferative activity, resazurin assay, RD; format: cell-based; settings: Homo sapiens, Rhabdomyosarcoma cell, read-out: Drug IC50 Values
Procedure: as §1

GCT histiocytoma cells = assay: Antiproliferative activity, resazurin assay, GCT; format: cell-based; settings: Homo sapiens, read-out: Drug IC50 Values
Procedure: as §1

[2] = tested on: HeLa cervical adenocarcinoma cells; assay: Antiproliferative activity, resazurin assay, HeLa; format: cell-based; settings: Homo sapiens, read-out: Drug IC50 Values
Procedure: as §1

[3] = tested on: T47D breast ductal carcinoma cells; assay: Antiproliferative activity, resazurin assay, T47D; format: cell-based; settings: Homo sapiens, read-out: Drug IC50 Values
Procedure: as §1

human cancer cell lines = assay: Antiproliferative activity, average over the five cancer cell lines of Table 1; format: cell-based; settings: for times more potent against cancer cells than a normal non-cancer cell line, on average: HADF IC50 / average cancer cell IC50; for IC50: Homo sapiens, read-out: Average Drug IC50 Values
Procedure: as §1
Even more unexpected and not predicted was that the selectivity of compound IV for cancer cells versus normal cells is shown to be 40 times greater compared to compound I (doxorubicin).

[4] = tested on: HADF human adult dermal fibroblasts; assay: Cytotoxicity against normal cell line, resazurin assay; format: cell-based; settings: for IC50: Fibroblast, read-out: Drug IC50 Values
Procedure: as §1
The compounds were also tested against a normal non-cancer cell line, normal human fibroblasts (HADF).

MES-SA cells = assay: Antiproliferative activity, doxorubicin sensitive uterine fibrosarcoma; format: cell-based; settings: Homo sapiens, read-out: Drug IC50 Values
Procedure: as §1
(§2) The compounds were further tested against a uterine fibrosarcoma cell line, MES-SA, sensitive to doxorubicin (compound I), and against a uterine fibrosarcoma cell line MES-SA/MX2 resistant to doxorubicin.

MES-SA/MX2 cells = assay: Antiproliferative activity, doxorubicin resistant uterine fibrosarcoma; format: cell-based, human; settings: for IC50: Homo sapiens, read-out: Drug IC50 Values; for potency in the resistant fibrosarcoma strain compared to the sensitive strain (times less potent): MES-SA/MX2 versus MES-SA
Procedure: as §1, §2

[5] = tested on: HT1080-luc fibrosarcoma cells; assay: Inhibitory potency against HT1080-luc in vitro; format: cell-based; settings: Homo sapiens, read-out: IC50±SEM
Procedure: The growth inhibitory potency of 2-pyrrolino-5-imino-13-deoxydoxorubicin IV, 5-imino-13-deoxydoxorubicin III, and doxorubicin I against several cancer cell lines was evaluated using the resazurin fluorescence assay. The growth inhibitory potency was measured as the inhibitory concentration of a compound required to inhibit cell growth by 50% (IC50). The cancer cells were seeded into 96-well plates (0.5-1×10^4 cells/well) with appropriate media, incubated with drug for 48 hours, and then treated with resazurin (final concentration, 0.01%), a non-fluorescent blue dye, for 24 hours. The fluorescence (Ex560 nm/Em590 nm) was recorded using a BioTek SynergyHT multiwell plate fluorimeter. Healthy cells metabolize resazurin to resorufin, a fluorescent pink dye. Thus, fluorescence is a proxy for cell viability and used to determine the effect of cytotoxic agents on cell cultures. […]
To assess in vivo drug activity against a primary tumor growth model of sarcoma, an experiment was conducted using commercially available human HT1080 fibrosarcoma cells engineered to express luciferase (HT1080-luc; PerkinElmer). The inhibitory potency of Compound III and Compound IV against HT1080-luc was measured in vitro by the methods described in Example 2. […]

HT1080-luc tumors = assay: Primary tumor growth model of sarcoma in SCID mice; format: in vivo; settings: for Averge tumor weight / tumor weight reduced / tumor progression by in vivo bioluminescent imaging: day 20; for Averge tumor weight: SCID mice; for tumor weight reduced: 2.4 mg/kg, relative to PBS; for tumor progression by in vivo bioluminescent imaging: relative to PBS-only treatment
Procedure: To assess in vivo drug activity against a primary tumor growth model of sarcoma, an experiment was conducted using commercially available human HT1080 fibrosarcoma cells engineered to express luciferase (HT1080-luc; PerkinElmer). The inhibitory potency of Compound III and Compound IV against HT1080-luc was measured in vitro by the methods described in Example 2. […] HT1080-luc tumors were initiated in 6 week old female SCID mice (Harlan) by orthotopic subcutaneous injection of 1×10^6 cells in each flank. After allowing the tumors to establish for 6 days, mice were randomized to one of three treatment groups and treated three times per week by intraperitoneal injection with compound IV or compound III, 2.4 mg/kg in physiological buffered saline (PBS), or vehicle (PBS). […] At day 20 tumor weight was reduced 53% with compound IV while reduced only 36% with compound III at the same given dose. […] This is in contrast to 2-pyrrolinodoxorubicin which can be lethal at its effective dose range.

[6] = tested on: HT1080 fibrosarcoma cells; assay: cells; format: cell-based; settings: for IC50 / IC10: 48 hours; for IC10: concentration inhibiting cell growth by 10%
Procedure: A fibrosarcoma cell line, HT1080, was used to measure the IC50's and IC10's (the inhibitory concentration of a compound required to inhibit cell growth by 10%) of Compound IV and Compound III, as described in Example 2. An IC50 concentration represents a therapeutic amount of compound. […] The cells were passaged and seeded at 5,000 cells/well on 96-well plates and the plates were incubated for 24 hours. After incubation, the media was changed and the IC50's and IC10's of compound IV and compound III were measured after 48 hours of incubation. Then, the IC50's of compound IV in the presence of compound III at an IC10 concentration and of compound III in the presence of compound IV at an IC10 concentration were measured after 48 hours of incubation. After the incubations, […] of 0.1% AlamarBlue in 1×PBS was added to each well. The plates were then incubated for a final 24 h. The plates were read on a microplate reader with an ex/em of 485/528.

advanced tumors = settings: patients with advanced tumors; cited from earlier work
[7] = literature; cited from earlier work
[8] = tested on: cancer cells versus normal cells; settings: as reported; cited from earlier work
topoisomerase II = settings: compared with doxorubicin; Stepankova et al.; cited from earlier work
[9] = SW872, SW-872 liposarcoma, 48 hours drug, resazurin, mean ±SEM of 3 assays
[10] = RD rhabdomyosarcoma, 48 hours drug, resazurin, mean ±SEM of 3 assays
[11] = GCT histiocytoma, 48 hours drug, resazurin, mean ±SEM of 3 assays
[12] = HeLa cervical adenocarcinoma, 48 hours drug, resazurin, mean ±SEM of 3 assays
[13] = T47D breast ductal carcinoma, 48 hours drug, resazurin, mean ±SEM of 3 assays
[14] = average of SW-872, RD, GCT, HeLa, T47D
[15] = HADF normal human adult dermal fibroblasts, resazurin
[16] = MES-SA uterine fibrosarcoma (sensitive), mean ±SEM of 3 assays
[17] = MES-SA/MX2 uterine fibrosarcoma (resistant), mean ±SEM of 3 assays
[18] = 2.4 mg/kg intraperitoneal three times per week

SMILES	IC50 (SW-872 liposarcoma cells; [9]) [µM]	IC50 [1, 10] [µM]	IC50 (GCT histiocytoma cells; [11]) [µM]	IC50 [2, 12] [µM]	IC50 [3, 13] [µM]	times more potent against cancer cells than a normal non-cancer cell line, on average (human cancer cell lines) [times]	IC50 (human cancer cell lines; [14]) [µM]	IC50 [4, 15] [µM]	IC50 (MES-SA cells; [16]) [µM]	IC50 (MES-SA/MX2 cells; [17]) [µM]	potency in the resistant fibrosarcoma strain compared to the sensitive strain (times less potent) (MES-SA/MX2 cells)	Averge tumor weight (HT1080-luc tumors; [18])	tumor weight reduced (HT1080-luc tumors) [%]	tumor progression by in vivo bioluminescent imaging (HT1080-luc tumors)	IC10 ([6]; compound alone, HT1080) [µM]	further results
COc1cccc2c1C(=O)c1c(O)c3c(c(O)c1C2=O)C[C@@](O)(C(=O)CO)C[C@@H]3O[C@H]1C[C@H](N)[C@H](O)[C@H](C)O1 [Compound I, doxorubicin]	33.7 ± 7.5	0.43 ± 0.15	0.279 ± 0.036	0.605 ± 0.095	10.3 ± 7.8	2	9.06	18.9	0.55 ± 0.08	7.8 ± 1.8	14 times	–	–	–	–	–
COc1cccc2c1C(=N)c1c(O)c3c(c(O)c1C2=O)C[C@@](O)(CCO)C[C@@H]3OC1CC(N)C(O)C(C)O1 (stereo partly drawn) [Compound III, 5-imino-13-deoxydoxorubicin]	7.38 ± 0.45	11.9 ± 3.99	3.37 ± 0.35	9.82 ± 0.93	18	5.8	10.1	58.9	10.5 ± 1	90	–	1.40 g	36	not significantly reduced	5.34	IC50 ([5]; HT1080-luc in vitro, methods of Example 2): 10 ± 6.1 µM; times more potent in the presence of a nontherapeutic amount (IC10) of the other compound [6]: 35 times; IC50 ([6]; Homo sapiens, HT-1080, 48 h, HT1080, read-out: IC50 of compound III in the presence of an IC10 of compound IV): 1.78 µM; IC50 ([6]; Homo sapiens, HT-1080, 48 h, compound alone, HT1080, read-out: IC50): 63.4 µM; IC50 ([6]; compound alone, HT1080, read-out: IC50): 63.7 µM; anticancer activity in Phase I clinical trial (advanced tumors): anticancer activity in a variety of carcinomas, sarcomas, and bladder cancer; tolerability in Phase I clinical trial (advanced tumors): well tolerated with relatively mild toxicity for an anthracycline
COc1cccc2c1C(=N)c1c(O)c3c(c(O)c1C2=O)C[C@@](O)(CCO)C[C@@H]3OC1CC(N2C=CCC2)C(O)C(C)O1 (stereo partly drawn) [Compound IV, 2-pyrrolino-5-imino-13-deoxydoxorubicin]	–	–	–	–	–	81	–	–	–	–	about equal in potency	1.03* g	53	reduced significantly statistically	0.84	IC50 (SW-872 liposarcoma cells; SW872, 48 h): 0.57 ± 0.23 µM; IC50 ([1]; 48 h): 0.44 ± 0.13 µM; IC50 (GCT histiocytoma cells; 48 h): 0.175 ± 0.015 µM; IC50 ([2]; HeLa, 48 h): 0.467 ± 0.104 µM; IC50 ([3]; T47D, 48 h): 0.817 ± 0.561 µM; IC50 (human cancer cell lines): 0.49 µM; times more potent than compound I for inhibiting cell growth of cancer cells, on average (human cancer cell lines; ratio of average IC50 values): 18 times; times more potent than compound III for inhibiting cell growth of cancer cells, on average (human cancer cell lines; ratio of average IC50 values): 20 times; cytotoxicity against HADF (normal) cells relative to doxorubicin I ([4]; 39.75/18.9): half as cytotoxic; IC50 ([4]; Homo sapiens): 39.8 µM; IC50 (MES-SA cells; MES-SA): 0.76 ± 0.16 µM; IC50 (MES-SA/MX2 cells; MES-SA): 0.66 ± 0.003 µM; times more potent than compound I in an anthracycline resistant cell line (MES-SA/MX2 cells; MES-SA/MX2): 12 times; IC50 [5]: 3.51 ± 1.79 µM; tolerability in mice (HT1080-luc tumors; [18]): well tolerated by the mice with no deaths and no overt signs of toxicity; times more potent in the presence of a nontherapeutic amount (IC10) of the other compound ([6]; HT1080, IC50 alone / IC50 in combination): 12 times; IC50 ([6]; Homo sapiens, HT-1080, 48 h, compound alone, HT1080): 12.5 µM; IC50 ([6]; Homo sapiens, HT-1080, 48 h, read-out: IC50 of compound IV in the presence of an IC10 of compound III, HT1080): 1 µM; IC50 ([6]; read-out: IC50 of compound IV in the presence of an IC10 of compound III, HT1080): 1.01 µM
COc1cccc2c1C(=O)c1c(O)c3c(c(O)c1C2=O)C[C@@](O)(C(=O)CO)C[C@@H]3OC1CC(N2C=CCC2)C(O)C(C)O1 (stereo partly drawn) [compound II, 3′-deamino-3′-(2″-pyrroline-1″-yl)doxorubicin]	–	–	–	–	–	–	–	–	–	–	–	–	–	–	–	toxicity relative to doses required for an anticancer effect [7]: toxic or lethal at or below doses that are required for an anticancer effect; selectivity for cancer cells versus normal cells [8]: little or no selectivity; ability of DNA modifications to inhibit catalytic activity of topoisomerase II (topoisomerase II): does not differ significantly from that of doxorubicin
